Laboratory results published in article PMC8066339, “Optimization of 2-Acylaminocycloalkylthiophene Derivatives for Activity against Staphylococcus aureus RnpA” (Antibiotics, 2021).
Values after ≈ are worked out from the molar mass of the structure shown. Values joined by “and” are separate entries in the source; they are usually repeats but may differ in a detail not shown here. Equal entries are not always repeated. “Also recorded” adds a separate entry of the source. Where two headings read alike, the source gives them in different places.

Experiments:
Assay type in all cases: cell-based, Staphylococcus aureus
[1] = tested on: RnpA-mediated ptRNA processing; assay: Cellular ptRNA^Tyr accumulation (qRT-PCR); conditions: 0.5X MIC for 1 h, Figure 3 right
Procedure: To evaluate the effects of each analog on cellular RnpA-mediated ptRNA processing, S. aureus cells were treated with a sub-inhibitory concentration of each analog (0.5X MIC) and qRT-PCR was used to measure ptRNA^Tyr accumulation, as previously described. […] Compounds RNP0007, 11,13, 14, 15, and 16 had little effect on ptRNA^Tyr levels in the cellular context.
Cellular S. aureus tRNA^Tyr pools were measured as previously described. […] The culture was removed, combined with an equal volume of acetone:ethanol (1:1 v/v) and stored at −80 °C.
(§1) Cell suspensions in acetone:ethanol were thawed on ice and centrifuged at 1560× g for 10 min at 4 °C. Acetone:ethanol was decanted, and pellets were left to air-dry for 5 min. Cell pellets were resuspended in 500 µL ice-cold TE buffer (10 mM Tris-HCl, pH 8.0, 1mM EDTA) and transferred to FastPrep Lysing Matrix B tubes (MP Biomedicals, Santa Ana, CA). Mixtures were homogenized at 5 m∙s^−1 for 20 s, rested on ice for 5 min, then homogenized again at 4.5 m∙s^−1 for 20 s in a FastPrep-24 instrument. Cell lysates were centrifuged at 16,200× g for 15 min at 4 °C to remove cell debris. Total bacterial RNA and tRNA^Tyr populations were isolated from the supernatant using Qiagen RNeasy Mini kits and miRNeasy kits, respectively, following the manufacturer’s recommendations (Germantown, MD). For qRT-PCR, 2 µg of RNA substrate was treated with 2 units of DNase I (New England Biolabs, Ipswich, MA, USA) for 1 h at 37 °C and re-purified using Qiagen RNeasy Mini kits, following the manufacturer’s instructions. RNA was measured for concentration and quality using a NanoDrop spectrophotometer. Quantabio (Beverly, MA, USA) qScript cDNA Supermix was used to convert 200 ng of RNA into cDNA, following manufacturer’s instructions, which was subsequently amplified using Quantabio SYBR Green Fast Mix following manufacturer’s instructions. Fluorescence was read on the BioRad (Hercules, CA, USA) CFX 96 Connect Real Time Machine. Transcript levels were compared to the internal control 16S rRNA (ΔΔCt) and plotted as fold change compared to the control. The following primer pairs were used in this study for qRT-PCR: spa forward—[…]; spa reverse—[…]; –15 ptRNA^Tyr forward—[…]; tRNA^Tyr reverse—TGGTG GAGGGGGGCAGATTC; 16S rRNA forward—[…]; 16S rRNA reverse—[…].

[2] = tested on: S. aureus strain UAMS-1; assay: Minimum inhibitory concentration (MIC) testing, CLSI broth microdilution; conditions: for MIC: Staphylococcus aureus, S. aureus strain UAMS-1, read-out: MIC
Procedure: Staphylococcus aureus strains UAMS-1 is a well-characterized antibiotic susceptible osteomyelitis clinical isolate (Blevins Infect. Immun 2003). For experiments, UAMS-1 was cultured in Mueller Hinton (MH) broth and processed as described below. Escherichia coli strain BL21 (DE3) was cultured in Luria–Bertani (LB) and supplemented with ampicillin (50 µg ml^−1) where indicated.
Minimum inhibitory concentration (MIC) was performed according to the Clinical and Laboratory Standards Institute (CLSI) guidelines. Briefly, individual wells of a 96-well microtiter plate were inoculated with 10^4 colony forming units (CFU) of S. aureus UAMS-1 containing two-fold increasing concentrations (0 µM to 100 µM) of the indicated antibiotic or putative RnpA inhibitor and grown at 37 °C for 16 h in MH broth. The MIC was defined as the lowest concentration of compound in which there was no visible bacterial growth detected by the unaided eye.

[3] = tested on: S. aureus UAMS-1; assay: Fractional inhibitory concentration (FIC) testing with mupirocin; conditions: for MIC: Staphylococcus aureus, UAMS1, compound alone, read-out: Cpd MIC, Dosed-Individually; for FIC Index / Antimicrobial interaction with mupirocin (class by FIC index): compound + mupirocin; for Cpd MIC, Dosed-Combination: compound MIC in combination with mupirocin
Procedure: Fractional inhibitory concentration (FIC) testing was performed, as previously described. Briefly, each well of a 96-well microtiter plate was inoculated with 10^4 CFU of S. aureus UAMS-1 [42]. Each row of the plate was supplemented with two-fold increasing concentrations of mupirocin (0 µg mL^−1 to 2 µg mL^−1) whereas each column contained two-fold increasing concentrations of putative RnpA inhibitor compound (0.03, 0.0625, 0.125, 0.25, 0.5, 1, or 2× MIC). […] The FIC index was defined by the following formula: FIC = (MIC of Drug A in Combination/MIC of Drug A Alone) + (MIC of Drug B in Combination/MIC of Drug B Alone). A synergistic interaction was defined as a FIC value of ≤0.5, an additive interaction as 0.5–1, no interaction as 1–4 and antagonistic interaction as FIC ≥ 4, as described.

[4] = tested on: RnpA-mediated mRNA turnover of spa mRNA; assay: Cellular mRNA turnover assay (spa mRNA, qRT-PCR after rifampin arrest); conditions: 0.5X MIC for 30 min, 0 and 5 min post-transcriptional arrest, Figure 3 left
Procedure: As a more direct measure of whether the antimicrobial effects were RnpA-dependent, studies were performed to measure their inhibition of cellular RnpA-mediated mRNA turnover of spa mRNA. The spa mRNA is a natural substrate of RnpA mRNA degradation, as previously described, and can be utilized for an intracellular readout of inhibition for RnpA-mediated mRNA turnover. To do so, S. aureus cells were treated with a sub-inhibitory concentration of compound (0.5X MIC) then challenged with the antibiotic rifampicin to arrest de novo RNA synthesis. Quantitative RT-PCR was used to measure the cellular titers of spa mRNA at 0 and 5 min post-transcriptional arrest.
S.aureus RNA half-life measurements were performed as described. […] To inhibit de novo RNA synthesis, rifampin (Alfa Aesar, Haverhill, MA, USA) was added to the culture at a final concentration of 200 µg mL^−1. Half of the culture was immediately removed and combined with an equal volume of ice-cold acetone:ethanol (1:1 v/v). The remainder of the culture was returned to the 37 °C incubator for an additional 5 min, then combined with an equal volume of ice-cold acetone:ethanol (1:1 v/v) and stored at −80 °C.
as §1

Structure (SMILES): Cc1cccc(NC(=O)c2c(NC(=O)C(F)(F)F)sc3c2CCCCC3)c1 [RNP0010]
- Cellular ptRNA^Tyr accumulation (in words) [1]: largest increases
- MIC ([2]; UAMS1, 16 h): 3.21 µM (≈ 1.27 µg/mL)
- MIC ([2]; UAMS1): 3.12 µM and 1.24 µg/mL
- MIC [3]: 3.12 µM
- FIC Index [3]: 0.75
- Cpd MIC, Dosed-Combination [3]: 0.78 µM
- Inhibition of cellular spa mRNA turnover (in words) [4]: strong inhibitor

Structure (SMILES): O=C(Nc1ccc(C(F)(F)F)cc1)c1c(NC(=O)C(F)(F)F)sc2c1CCCCC2 [RNP0012]
- Cellular ptRNA^Tyr accumulation (in words) [1]: largest increases; also recorded: top-performing cellular ptRNA processing inhibitor
- MIC ([2]; UAMS1): 0.19 µM and 0.086 µg/mL
- Fold improvement in anti-staphylococcal activity (MIC) over JR1 ([2]; compared with JR1): 6.6 fold
- MIC [3]: 0.19 µM
- Antimicrobial interaction with mupirocin (class by FIC index) [3]: additive (a value of 0.5 < FIC ≤ 1 indicates additive effect)
- FIC Index [3]: 0.75
- Cpd MIC, Dosed-Combination [3]: 0.048 µM
- Inhibition of cellular spa mRNA turnover (in words) [4]: moderate inhibitors; also recorded: significantly reduced RnpA-associated mRNA degradation

Structure (SMILES): O=C(Nc1cccc(Cl)c1)c1c(NC(=O)C(F)(F)F)sc2c1CCCCC2 [RNP0007]
- Cellular ptRNA^Tyr accumulation (in words) [1]: little effect
- MIC ([2]; UAMS1): 0.391 µM and 0.16 µg/mL
- MIC [3]: 0.391 µM
- FIC Index [3]: 0.75
- Cpd MIC, Dosed-Combination [3]: 0.098 µM

Structure (SMILES): O=C(Nc1cccc(C(F)(F)F)c1)c1c(NC(=O)C(F)(F)F)sc2c1CCCCC2 [RNP0011]
- Cellular ptRNA^Tyr accumulation (in words) [1]: little effect
- MIC ([2]; UAMS1): 0.391 µM and 0.18 µg/mL
- MIC [3]: 0.391 µM
- FIC Index [3]: 0.75
- Cpd MIC, Dosed-Combination [3]: 0.098 µM
- Inhibition of cellular spa mRNA turnover (in words) [4]: moderate inhibitors

Structure (SMILES): O=C(Nc1ccc(F)cc1)c1c(NC(=O)C(F)(F)F)sc2c1CCCCC2 [RNP0009]
- Cellular ptRNA^Tyr accumulation (in words) [1]: largest increases
- MIC ([2]; UAMS1): 0.78 µM and 0.32 µg/mL
- MIC [3]: 0.78 µM
- FIC Index [3]: 0.75
- Cpd MIC, Dosed-Combination [3]: 0.196 µM
- Inhibition of cellular spa mRNA turnover (in words) [4]: weakest inhibitors

Structure (SMILES): O=C(Nc1cccc(C(F)(F)F)c1)c1c(NC(=O)C(F)(F)F)sc2c1CCCC2 [RNP0016]
- Cellular ptRNA^Tyr accumulation (in words) [1]: little effect
- MIC ([2]; UAMS1): 3.12 µM and 1.36 µg/mL
- MIC [3]: 3.12 µM
- Antimicrobial interaction with mupirocin (class by FIC index) [3]: additive (a value of 0.5 < FIC ≤ 1 indicates additive effect)
- FIC Index [3]: 1
- Cpd MIC, Dosed-Combination [3]: 1.56 µM
- Inhibition of cellular spa mRNA turnover (in words) [4]: strongest stabilizers of mRNA

Structure (SMILES): O=C(Nc1cccc(F)c1)c1c(NC(=O)C(F)(F)F)sc2c1CCCC2 [RNP0013]
- Cellular ptRNA^Tyr accumulation (in words) [1]: little effect
- MIC ([2]; UAMS1): 6.25 µM and 2.4 µg/mL
- MIC [3]: 6.25 µM
- FIC Index [3]: 0.75
- Cpd MIC, Dosed-Combination [3]: 1.56 µM

Structure (SMILES): O=C(Nc1cccc(F)c1)c1c(NC(=O)C(F)(F)F)sc2c1CCCCC2 [RNP0008]
- Cellular ptRNA^Tyr accumulation (in words) [1]: largest increases
- MIC ([2]; UAMS1): 0.391 µM and 0.16 µg/mL
- MIC [3]: 0.391 µM
- FIC Index [3]: 1
- Cpd MIC, Dosed-Combination [3]: 0.196 µM
- Inhibition of cellular spa mRNA turnover (in words) [4]: weakest inhibitors

Structure (SMILES): O=C(Nc1ccc(F)cc1)c1c(NC(=O)C(F)(F)F)sc2c1CCCC2 [RNP0014]
- Cellular ptRNA^Tyr accumulation (in words) [1]: little effect
- MIC ([2]; UAMS1): 6.25 µM and 2.4 µg/mL
- MIC [3]: 6.25 µM
- Antimicrobial interaction with mupirocin (class by FIC index) [3]: synergistic (FIC ≤ 0.5 indicates synergistic activity)
- FIC Index [3]: 0.5
- Cpd MIC, Dosed-Combination [3]: 1.56 µM
- Inhibition of cellular spa mRNA turnover (in words) [4]: strongest stabilizers of mRNA

Structure (SMILES): O=C(Nc1ccc(C(F)(F)F)cc1)c1c(NC(=O)C(F)(F)F)sc2c1CCCC2 [RNP0015]
- Cellular ptRNA^Tyr accumulation (in words) [1]: little effect
- MIC ([2]; UAMS1): 0.78 µM and 0.34 µg/mL
- Fold reduction of antimicrobial activity, six-membered vs seven-membered ring matched pair ([2]; matched molecular pairs): fourfold less potent
- MIC [3]: 0.78 µM
- FIC Index [3]: 1.5
- Cpd MIC, Dosed-Combination [3]: 0.78 µM
